{"source": "paper PMC7880690", "about": "“Chemical genetics and proteome-wide site mapping reveal cysteine MARylation by PARP-7 on immune-relevant protein targets” (eLife, 2021)", "key": {"PARP2FL": {"target": "PARP2FL (Homo sapiens, UniProt Q9UGN5)", "sequence (Q9UGN5 whole entry)": "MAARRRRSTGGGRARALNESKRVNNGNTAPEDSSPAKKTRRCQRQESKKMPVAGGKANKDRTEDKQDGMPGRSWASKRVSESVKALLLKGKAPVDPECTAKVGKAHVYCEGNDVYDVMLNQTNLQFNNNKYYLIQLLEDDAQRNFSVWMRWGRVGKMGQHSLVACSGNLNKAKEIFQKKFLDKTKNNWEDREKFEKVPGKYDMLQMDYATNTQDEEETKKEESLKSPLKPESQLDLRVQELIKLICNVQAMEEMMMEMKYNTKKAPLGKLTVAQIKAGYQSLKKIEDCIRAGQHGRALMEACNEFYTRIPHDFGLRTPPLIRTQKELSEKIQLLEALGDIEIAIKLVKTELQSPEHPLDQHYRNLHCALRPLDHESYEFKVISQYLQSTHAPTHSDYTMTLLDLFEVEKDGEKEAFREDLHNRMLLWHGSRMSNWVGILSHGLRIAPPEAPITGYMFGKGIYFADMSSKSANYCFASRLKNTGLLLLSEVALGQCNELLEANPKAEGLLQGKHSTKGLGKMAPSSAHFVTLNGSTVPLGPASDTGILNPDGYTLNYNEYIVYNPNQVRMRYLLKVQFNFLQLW", "experiment": "ADP-ribosylation plate assay, PARP2FL"}, "PARP3FL": {"target": "T1, PARP3FL (Homo sapiens, UniProt Q9Y6F1)", "T1 sequence (Q9Y6F1 1-533)": "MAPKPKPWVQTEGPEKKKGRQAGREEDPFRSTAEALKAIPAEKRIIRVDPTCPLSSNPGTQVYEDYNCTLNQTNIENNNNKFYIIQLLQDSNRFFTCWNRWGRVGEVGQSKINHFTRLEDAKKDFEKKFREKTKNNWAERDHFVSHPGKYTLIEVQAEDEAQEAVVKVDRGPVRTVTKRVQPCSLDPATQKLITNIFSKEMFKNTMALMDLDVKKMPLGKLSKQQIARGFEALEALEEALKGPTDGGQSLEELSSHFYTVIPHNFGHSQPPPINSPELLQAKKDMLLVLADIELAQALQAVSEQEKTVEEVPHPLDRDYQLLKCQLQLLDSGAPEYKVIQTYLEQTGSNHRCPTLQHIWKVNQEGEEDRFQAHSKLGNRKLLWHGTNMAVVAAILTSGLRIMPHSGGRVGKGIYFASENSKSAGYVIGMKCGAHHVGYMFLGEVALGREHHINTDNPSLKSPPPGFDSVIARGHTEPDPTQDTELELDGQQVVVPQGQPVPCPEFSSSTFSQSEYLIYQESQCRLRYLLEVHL", "experiment": "ADP-ribosylation plate assay, PARP3FL"}, "PARP-7": {"target": "T2, PARP-7 (Homo sapiens, UniProt Q7Z3E1)", "T2 sequence (Q7Z3E1 1-657)": "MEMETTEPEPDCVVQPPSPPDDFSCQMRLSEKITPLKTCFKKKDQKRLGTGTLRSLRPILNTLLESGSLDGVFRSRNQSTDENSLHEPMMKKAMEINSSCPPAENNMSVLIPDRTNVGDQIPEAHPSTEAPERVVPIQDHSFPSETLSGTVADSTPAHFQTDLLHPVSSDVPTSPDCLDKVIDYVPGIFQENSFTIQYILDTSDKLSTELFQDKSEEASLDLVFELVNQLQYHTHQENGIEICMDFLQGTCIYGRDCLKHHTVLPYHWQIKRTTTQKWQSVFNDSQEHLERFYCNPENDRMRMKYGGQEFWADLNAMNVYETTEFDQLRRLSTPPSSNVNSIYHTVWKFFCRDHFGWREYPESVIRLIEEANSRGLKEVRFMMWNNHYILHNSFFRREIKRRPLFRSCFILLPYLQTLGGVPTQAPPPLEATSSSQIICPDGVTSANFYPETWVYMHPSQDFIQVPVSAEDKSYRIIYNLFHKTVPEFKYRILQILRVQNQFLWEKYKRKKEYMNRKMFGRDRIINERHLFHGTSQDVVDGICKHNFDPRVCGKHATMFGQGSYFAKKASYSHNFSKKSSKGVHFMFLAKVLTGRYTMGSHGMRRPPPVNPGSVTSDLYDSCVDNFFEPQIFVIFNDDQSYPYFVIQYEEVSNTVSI", "experiment": "Endogenous PARP-7 protein levels in A549 cells, western blot", "conditions": "A549 cells treated with Phthal01"}, "GFP-PARP-7": {"target": "T3, GFP-PARP-7 (Homo sapiens, UniProt Q7Z3E1)", "T3 sequence (Q7Z3E1 1-657)": "T2 sequence (Q7Z3E1 1-657)", "experiment": "Protein levels of ectopically expressed GFP-PARP-7 in HEK 293 T cell time course", "conditions": "HEK 293 T cell time course, 1 μM"}}, "data": [{"molecule": "N#Cc1ccc(N2CCN(C(=O)c3cc(Cc4n[nH]c(=O)c5ccccc45)ccc3F)CC2)nc1", "note": "[Phthal01, 6-(4-(2-fluoro-5-((4-oxo-3,4-dihydrophthalazin-1-yl)methyl)benzoyl)piperazin-1-yl)nicotinonitrile]", "values": [{"measurement": "IC50", "setting": "PARP2FL", "result": 28, "unit": "nM"}, {"measurement": "IC50", "setting": "PARP3FL", "result": "320 ± 2", "unit": "nM"}, {"measurement": "endogenous PARP-7 protein levels", "setting": "PARP-7", "result": "increase substantially"}, {"measurement": "protein levels of ectopically expressed GFP-PARP-7", "setting": "GFP-PARP-7", "result": "increased"}]}]}
